Source: patent US7029671B1, “Method for activating human antigen-presenting cells, activated human antigen-presenting cells, and use thereof” (Kirin Brewery Company, Limited, priority 1996, dated 2006)

Experiments:
[1] = test system: Human Peripheral Blood-derived APC; experiment: Pharmacological Test 1: autologous MLR assay with human peripheral blood-derived APCs pretreated with KRN7000; format: cell-based; conditions: KRN7000 100 ng/mL, 40 hours; conclusion from autologous MLR
Procedure: This experiment was designed to study an effect of KRN7000 (Compound No.14, a representative glycoside compound of the invention) on APCs prepared from human peripheral blood. The APCs (mainly comprised of dendritic cells) derived from human peripheral blood were prepared essentially according to the method of Hsu et al. (supra). Briefly, human peripheral blood was layered over Ficoll-Paque and centrifuged at 2,000 rpm for 35 minutes to give a mononuclear cell fraction. A portion of the mononuclear cell fraction was suspended into PBS (Ca^++, Mg^++ free) supplemented with 5% of inactivated human AB serum. The resultant solution was layered over 50% Percol, and then centrifuged at 3,000 rpm for 20 minutes to give a high-density fraction. The high-density fraction was panned using a human γ-globulin-coated dish to remove FcR^+ cells therefrom (i.e., a monocyte-removed fraction). The resultant fraction was reacted with anti-CD3 monoclonal antibodies, anti-CD21 monoclonal antibodies and anti-CD56 monoclonal antibodies. […]
The APCs (5×10^4 cells/well) and the responder cells (1×10^5 cells/well) both prepared in the above steps were added to wells of a 96-well flat-bottomed plate, and then subjected to autologous MLR assay. […] The amount of the ^3H-TdR taken up into the cells was determined using a liquid scintillation counter. […]

[2] = test system: Murine T cell lymphoma EL-4 cells; experiment: Pharmacological Test 4: APC therapy of EL-4-bearing mice, survival period; format: in vivo, mouse
Procedure: To study an anti-tumor effect of murine spleen-derived APCs activated with KRN7000 on mice implanted with tumor cells, experiments were performed with BDF1 mice (6-week-old, female). All experiments included 6 mice per group. Murine T cell lymphoma EL-4 cells were injected intravenously into each mouse at a level of 1×10^5 cells/mouse (injection day: day 0). On day 1, the vehicle-pretreated APCs (V-APC) and the KRN7000-pretreated (100 ng/mL) APCs (KRN-APC) both prepared in the same manner as in Pharmacological Test 3 were each injected intravenously into the mice at a level of 5×10^5 cells/mouse. As a positive control, KRN7000 was injected intravenously into the mice at a dose of 100 μg/kg on days 1, 5 and 9. Each mouse was checked for a sign of life daily to determine its survival period.

[3] = test system: Murine colon adenocarcinoma Colon26 cells; experiment: Pharmacological Test 6: APC therapy of mice implanted intrasplenically with Colon26 cells, liver weight; format: in vivo, mouse
Procedure: The experiment was performed to study an anti-tumor effect of murine bone marrow-derived APCs activated with KRN7000 on mice implanted with tumor cells. All experiments were performed with CDF1 mice (6-week-old, female), which were divided into groups consisting of 5 mice. Murine colon adenocarcinoma Colon26 cells were implanted into each mouse intrasplenically at a level of 2×10^6 cells/mouse (inoculation day: day 0). On day 1, the vehicle-pretreated APCs (V-APC) and the KRN7000-pretreated (100 ng/mL) APCs (KRN-APC) both prepared in the same manner as in Pharmacological Test 5 were individually injected intravenously to the mice at a level of 8×10^5 cells/mouse. As a positive control, KRN7000 was injected intravenously to the mice at a dose of 100 μg/kg on days 1, 5 and 9. On day 14, the liver was removed from each of the mice and weighed. Here, the liver from the mouse that had not been implanted with the tumor cells was about 1 g. Accordingly, the substantial tumor weight was determined by subtracting 1 g from the weight of the liver of the tumor-implanted mouse.

[4] = test system: Murine melanoma B16 cells; experiment: Pharmacological Test 8: APC therapy of mice with subcutaneous B16 melanoma, tumor volume; format: in vivo, mouse; conditions: KRN7000 100 μg/kg i.v. on days 1, 5 and 9 (positive control)
Procedure: The experiment was performed with BDF1 mice (6-week-old, female), which were divided into groups consisting of 6 mice. Murine melanoma B16 cells were implanted subcutaneously into each mouse at a level of 1.5×10^6 cells/mouse (implantation day: day 0). Several types of pretreated APCs were prepared in the same manner as in Pharmacological Test 3, in which APCs were pretreated with a vehicle (DMSO, final concentration: 0.1%) (V-APC), with both the vehicle (DMSO, final concentration: 0.1%) and a B16-tumor cell lysate (V-T-APC), with KRN7000 (final concentration: 100 ng/mL) (KRN-APC), and with both KRN7000 (final concentration: 100 ng/mL) and a B16-tumor cell lysate (KRN-T-APC), respectively. Each of the pretreated APCs was injected intravenously into the mice at a dose of 5×10^5 cells/mouse on day 1. As a positive control, KRN7000 was injected intravenously into the mice at a dose of 100 μg/kg on days 1, 5 and 9. The volume of the subcutaneous tumor in each mouse was measured.

[5] = test system: Human Peripheral Blood-derived APCs; experiment: Pharmacological Test 9: allogeneic MLR assay with human peripheral blood monocyte-derived APCs cultured 3 days; format: cell-based; conditions: conclusion from Pharmacological Tests 9, 10 and 11; KRN7000 100 ng/mL
Procedure: A monocyte fraction was prepared from human peripheral blood mononuclear cells by Percol density-gradient centrifugation. The monocyte fraction was cultured in the presence or absence of GM-CSF (50 ng/mL) and IL-4 (100 ng/mL), and simultaneously either a vehicle (v; DMSO, 0.1%) or KRN7000 (KRN; 100 ng/mL) was added thereto. After culturing for 3 days, the cells were collected and washed with the medium 3 times to give V-APC, KRN-APC, V-APC-GM and KRN-APC-GM (where “GM” refers to the APCs cultured in the presence of GM-CSF and IL-4), which were then provided for use as APCs. As responder cells, human peripheral blood-derived FcR^− cells were used to perform allogeneic MLR assay.

[6] = test system: Human Umbilibal Cord Blood-derived APC; experiment: Pharmacological Test 12: autologous MLR assay with human umbilical cord blood monocyte-derived APCs; format: cell-based; conditions: KRN7000 100 ng/mL
Procedure: A monocyte fraction was prepared from human umbilical cord blood mononuclear cells by Percol density-gradient centrifugation. The monocyte fraction was cultured in the presence of GM-CSF (50 ng/mL) and IL-4 (100 ng/mL), and simultaneously either a vehicle (V; 0.1% DMSO) or KRN7000 (KRN; 100 ng/mL) was added thereto. After culturing for 3 days, the cells were recovered and washed with the medium 3 times to give V-APC-GM and KRN-APC-GM, respectively, which were provided for use as APCs. As response cells, human umbilical cord blood-derived FcR^− cells were used for autologous MLR assay.

[7] = test system: dendritic cell-rich APCs prepared from the murine spleen; conditions: Koezuka 1995; Yamaguchi 1996; cited from earlier work
[8] = KRN7000 100 μg/kg i.v. 3 times versus KRN-APC once

In the case of `CCCCCCCCCCCCCCCCCCCCCCCCCC(=O)N[C@@H](CO[C@H]1O[C@H](CO)[C@H](O)[C@H](O)[C@H]1O)[C@H](O)[C@H](O)CCCCCCCCCCCCCC` [KRN7000, (2S,3S,4R)-1-(α-D-galactopyranosyloxy)-2-hexacosanoylamino-3,4-octadecanediol], the “activating effect on APCs (antigen-presenting function enhancing effect)” value [1] is reported as “has an activating effect on the APCs prepared from human peripheral blood”, the survival period ([2]; EL-4 i.v. day 0, KRN7000 100 μg/kg i.v. on days 1, 5 and 9 (positive control)) is reported as “remarkable increase in survival period” and the “potency of the survival effect compared with one injection of KRN-APC” value [2, 8] is reported as “weaker than that when KRN-APC was injected only once”. The “tumor growth inhibitory effect compared with one injection of KRN-APC” value [3, 8] was “at the same level as that when KRN-APC was injected once”, the “inhibitory effect on tumor growth (liver weight on day 14)” value ([3]; KRN7000 100 μg/kg i.v. on days 1, 5 and 9 (positive control)) was “remarkable inhibitory effect on tumor growth” and the “tumor growth-inhibitory effect (volume of the subcutaneous tumor)” value [4] was “tumor growth-inhibitory effect”. For the same molecule, the “activation of APCs from human peripheral blood” value [5] was “can activate the APCs from human peripheral blood by various methods”, the “activation of APCs derived from human umbilical cord blood” value [6] was “can activate the APCs derived from human umbilical cord blood by various methods” and the “enhancement of the functions of dendritic cell-rich APCs from murine spleen” value [7] was “can enhance the functions of dendritic cell-rich APCs prepared from the murine spleen”.
